# Assay results from publication PMC5218480 (PLoS ONE, 2017).
# Test system: MV-4-11 cells
# Test: Gene expression microarray analysis (Affymetrix PrimeView) and GSEA
# Format: cell-based, human
# Parameters: RFU PODN (11730768_x_at) / Fold change /veh PODN (11730768_x_at) / RFU LINC00158 (11744669_a_at) / Fold change /veh LINC00158 (11744669_a_at) / RFU DUSP10 (11751237_a_at) / Fold change /veh DUSP10 (11751237_a_at) / RFU ID3 (11757404_x_at) / Fold change /veh ID3 (11757404_x_at) / RFU PLEKHG5 (11737974_s_at) / Fold change /veh PLEKHG5 (11737974_s_at) / RFU LRRC4B (11730491_at) / Fold change /veh LRRC4B (11730491_at) / RFU GIMAP4 (11747438_a_at) / Fold change /veh GIMAP4 (11747438_a_at) / RFU KRT8 (11758183_x_at) / Fold change /veh KRT8 (11758183_x_at) / RFU CNN1 (11734310_a_at) / Fold change /veh CNN1 (11734310_a_at) / RFU VPS37D (11726825_at) / Fold change /veh VPS37D (11726825_at) / RFU C10orf10 (11716522_x_at) / Fold change /veh C10orf10 (11716522_x_at) / RFU KIR2DL2 /// KIR2DL4 /// KIR2DL5A /// KIR2DL5B /// KIR2DS1 /// KIR2DS2 /// KIR2DS3 /// KIR2DS4 /// KIR3DL3 /// KIR3DL3 /// KIR3DS1 (11738374_at) / Fold change /veh KIR2DL2 /// KIR2DL4 /// KIR2DL5A /// KIR2DL5B /// KIR2DS1 /// KIR2DS2 /// KIR2DS3 /// KIR2DS4 /// KIR3DL3 /// KIR3DL3 /// KIR3DS1 (11738374_at) / RFU C1QL1 (11718748_at) / Fold change /veh C1QL1 (11718748_at) / RFU TMPRSS4 (11747572_a_at) / Fold change /veh TMPRSS4 (11747572_a_at) / RFU HAMP (11756126_x_at) / Fold change /veh HAMP (11756126_x_at) / RFU RNFT2 (11725882_a_at) / Fold change /veh RNFT2 (11725882_a_at) / RFU NR4A2 (11747474_a_at) / Fold change /veh NR4A2 (11747474_a_at) / RFU ABCC12 (11746883_a_at) / Fold change /veh ABCC12 (11746883_a_at) / RFU TMEM136 (11760407_x_at) / Fold change /veh TMEM136 (11760407_x_at) / RFU CLDN22 /// WWC2 (11732394_at) / Fold change /veh CLDN22 /// WWC2 (11732394_at) / RFU HLA-DPB1 (11760878_x_at) / Fold change /veh HLA-DPB1 (11760878_x_at) / RFU SPINT1 (11716480_a_at) / Fold change /veh SPINT1 (11716480_a_at) / RFU GAP43 (11754022_s_at) / Fold change /veh GAP43 (11754022_s_at) / RFU A4GNT (11735810_at) / Fold change /veh A4GNT (11735810_at) / RFU PRB3 (11715151_x_at) / Fold change /veh PRB3 (11715151_x_at) / RFU TUBB4B (11761932_at) / Fold change /veh TUBB4B (11761932_at) / RFU CAPN14 (11732068_a_at) / Fold change /veh CAPN14 (11732068_a_at) / RFU TMCC2 (11721928_a_at) / Fold change /veh TMCC2 (11721928_a_at) / RFU IRGQ (11745062_a_at) / Fold change /veh IRGQ (11745062_a_at) / RFU FAM174B (11720279_a_at) / Fold change /veh FAM174B (11720279_a_at) / RFU TMPRSS4 (11748680_a_at) / Fold change /veh TMPRSS4 (11748680_a_at) / RFU FAM212B (11763350_a_at) / Fold change /veh FAM212B (11763350_a_at) / RFU PLEKHG5 (11743358_a_at) / Fold change /veh PLEKHG5 (11743358_a_at) / RFU ZSCAN30 (11745921_a_at) / Fold change /veh ZSCAN30 (11745921_a_at) / RFU CMKLR1 (11741424_a_at) / Fold change /veh CMKLR1 (11741424_a_at) / RFU LOC101060620 /// MAPK8IP1 (11723275_at) / Fold change /veh LOC101060620 /// MAPK8IP1 (11723275_at) / RFU SPTSSB (11747773_x_at) / Fold change /veh SPTSSB (11747773_x_at) / RFU PRSS12 (11739890_at) / Fold change /veh PRSS12 (11739890_at) / RFU BIN1 (11741810_x_at) / Fold change /veh BIN1 (11741810_x_at) / RFU WNT11 (11732464_a_at) / Fold change /veh WNT11 (11732464_a_at) / RFU C10orf10 (11716521_a_at) / Fold change /veh C10orf10 (11716521_a_at) / RFU C5orf56 (11738089_at) / Fold change /veh C5orf56 (11738089_at) / RFU CYB561 (11721691_x_at) / Fold change /veh CYB561 (11721691_x_at) / RFU ANKRD19P (11752326_a_at) / Fold change /veh ANKRD19P (11752326_a_at) / RFU OR2T12 /// OR2T33 /// OR2T8 (11738714_s_at) / Fold change /veh OR2T12 /// OR2T33 /// OR2T8 (11738714_s_at) / RFU VCAN (11748164_a_at) / Fold change /veh VCAN (11748164_a_at) / RFU JSRP1 (11732532_at) / Fold change /veh JSRP1 (11732532_at) / RFU KRTAP10-11 (11738290_x_at) / Fold change /veh KRTAP10-11 (11738290_x_at) / RFU MYO3A (11730013_a_at) / Fold change /veh MYO3A (11730013_a_at) / RFU EBF3 (11725865_a_at) / Fold change /veh EBF3 (11725865_a_at) / RFU CAMK2N1 (11719241_x_at) / Fold change /veh CAMK2N1 (11719241_x_at) / RFU C5orf56 (11738088_a_at) / Fold change /veh C5orf56 (11738088_a_at) / RFU OLFML3 (11715873_a_at) / Fold change /veh OLFML3 (11715873_a_at) / RFU LOC100653217 /// NTM (11731650_a_at) / Fold change /veh LOC100653217 /// NTM (11731650_a_at) / RFU MAPK11 (11762145_a_at) / Fold change /veh MAPK11 (11762145_a_at) / RFU FIZ1 (11724087_x_at) / Fold change /veh FIZ1 (11724087_x_at) / RFU OASL (11726364_x_at) / Fold change /veh OASL (11726364_x_at) / RFU SOX15 (11748057_x_at) / Fold change /veh SOX15 (11748057_x_at) / RFU CD79A (11719716_a_at) / Fold change /veh CD79A (11719716_a_at) / RFU HIST1H1D (11736915_at) / Fold change /veh HIST1H1D (11736915_at) / RFU CASKIN2 (11723855_a_at) / Fold change /veh CASKIN2 (11723855_a_at) / RFU LOC730098 (11760151_x_at) / Fold change /veh LOC730098 (11760151_x_at) / RFU OR4N2 (11742367_at) / Fold change /veh OR4N2 (11742367_at) / RFU PRRT2 (11749266_a_at) / Fold change /veh PRRT2 (11749266_a_at) / RFU SNX32 (11753110_a_at) / Fold change /veh SNX32 (11753110_a_at) / RFU CDHR5 (11726645_a_at) / Fold change /veh CDHR5 (11726645_a_at) / RFU RCAN1 (11760418_a_at) / Fold change /veh RCAN1 (11760418_a_at) / RFU FAM167A (11723789_a_at) / Fold change /veh FAM167A (11723789_a_at) / RFU FAM26E (11764081_at) / Fold change /veh FAM26E (11764081_at) / RFU ISYNA1 (11749810_s_at) / Fold change /veh ISYNA1 (11749810_s_at) / RFU ACY1 (11761880_at) / Fold change /veh ACY1 (11761880_at) / RFU 11764098_at / Fold change /veh 11764098_at / RFU SAMD14 (11745864_x_at) / Fold change /veh SAMD14 (11745864_x_at) / RFU NPB (11741838_a_at) / Fold change /veh NPB (11741838_a_at) / RFU TMPRSS6 (11731388_a_at) / Fold change /veh TMPRSS6 (11731388_a_at) / RFU KRTAP10-2 (11738614_at) / Fold change /veh KRTAP10-2 (11738614_at) / RFU ARHGAP8 /// PRR5-ARHGAP8 (11727945_x_at) / Fold change /veh ARHGAP8 /// PRR5-ARHGAP8 (11727945_x_at) / RFU KRTAP5-7 /// NADSYN1 (11734609_at) / Fold change /veh KRTAP5-7 /// NADSYN1 (11734609_at) / RFU RASL12 (11751679_a_at) / Fold change /veh RASL12 (11751679_a_at) / RFU CDKN2B (11736163_a_at) / Fold change /veh CDKN2B (11736163_a_at) / RFU PRF1 (11729649_at) / Fold change /veh PRF1 (11729649_at) / RFU, ZNF638 /// ZNF638-IT1 / Fold change vs veh, ZNF638 /// ZNF638-IT1 / RFU, PANK3 / Fold change vs veh, PANK3 / RFU, SH3YL1 / Fold change vs veh, SH3YL1 / RFU, ZEB2 / Fold change vs veh, ZEB2 / RFU, NRIP1 / Fold change vs veh, NRIP1 / RFU, PTTG1IP / Fold change vs veh, PTTG1IP / RFU, CAPN2 / Fold change vs veh, CAPN2 / RFU, MED14 / Fold change vs veh, MED14 / RFU, SNORA58 / Fold change vs veh, SNORA58 / RFU, C1orf63 / Fold change vs veh, C1orf63 / RFU, LRRFIP1 / Fold change vs veh, LRRFIP1 / RFU, NDUFAF7 / Fold change vs veh, NDUFAF7 / RFU, SLC12A2 / Fold change vs veh, SLC12A2 / RFU, IBTK / Fold change vs veh, IBTK / RFU, ESF1 / Fold change vs veh, ESF1 / Fold change vs veh, TMEM50B / RFU, TAOK1 / Fold change vs veh, TAOK1 / RFU, ACBD3 / Fold change vs veh, ACBD3 / RFU, TMA16 / Fold change vs veh, TMA16 / RFU, RWDD3 / Fold change vs veh, RWDD3 / RFU, BCAT1 / Fold change vs veh, BCAT1 / RFU, EDEM3 / Fold change vs veh, EDEM3 / RFU, TMEM33 / Fold change vs veh, TMEM33 / RFU, WDR75 / Fold change vs veh, WDR75 / RFU, AHCTF1 / Fold change vs veh, AHCTF1 / RFU, TFRC / Fold change vs veh, TFRC / RFU, ZDHHC17 / Fold change vs veh, ZDHHC17 / RFU, NOM1 / Fold change vs veh, NOM1 / RFU, ARL8B / Fold change vs veh, ARL8B / RFU, ZBTB11 / Fold change vs veh, ZBTB11 / RFU, TAMM41 / Fold change vs veh, TAMM41 / RFU, KIAA1704 /// LOC100996395 / Fold change vs veh, KIAA1704 /// LOC100996395 / RFU, ING1 / Fold change vs veh, ING1 / RFU, TRMT61B / Fold change vs veh, TRMT61B / RFU, FUBP3 / Fold change vs veh, FUBP3 / RFU, TP53 / Fold change vs veh, TP53 / RFU, TNKS2 / Fold change vs veh, TNKS2 / RFU, ZFP14 / Fold change vs veh, ZFP14 / RFU, ACTR2 / Fold change vs veh, ACTR2 / RFU, PPP3R1 / Fold change vs veh, PPP3R1 / RFU, PIK3R1 / Fold change vs veh, PIK3R1 / RFU, HNRNPA1 / Fold change vs veh, HNRNPA1 / RFU, RNF170 / Fold change vs veh, RNF170 / RFU, ZNF28 / Fold change vs veh, ZNF28 / RFU, RNGTT / Fold change vs veh, RNGTT / RFU, OGT / Fold change vs veh, OGT / RFU, BRD1 / Fold change vs veh, BRD1 / RFU, MARS / Fold change vs veh, MARS / RFU, ZNF655 / Fold change vs veh, ZNF655 / RFU, FAHD1 / Fold change vs veh, FAHD1 / RFU, BDP1 / Fold change vs veh, BDP1 / RFU, LRRCC1 / Fold change vs veh, LRRCC1 / RFU, ARID1A / Fold change vs veh, ARID1A / RFU, ZNF146 / Fold change vs veh, ZNF146 / RFU, ZNF330 / Fold change vs veh, ZNF330 / RFU, GPN3 / Fold change vs veh, GPN3 / RFU, C9orf123 / Fold change vs veh, C9orf123 / RFU, N4BP2L2 / Fold change vs veh, N4BP2L2 / RFU, ARFIP1 / Fold change vs veh, ARFIP1 / RFU, FAM179B / Fold change vs veh, FAM179B / RFU, BCL10 / Fold change vs veh, BCL10 / RFU, UHRF1BP1L / Fold change vs veh, UHRF1BP1L / RFU, BET1 / Fold change vs veh, BET1 / RFU, CNOT2 / Fold change vs veh, CNOT2 / RFU, ZNF268 / Fold change vs veh, ZNF268 / Fold change vs veh, ZNF507 / RFU, DGCR2 / Fold change vs veh, DGCR2 / RFU, WDSUB1 / Fold change vs veh, WDSUB1 / Fold change vs veh, HSP90B1 /// MIR3652 / RFU, ADSS / Fold change vs veh, ADSS / RFU, GK / Fold change vs veh, GK / RFU, ZNF148 / Fold change vs veh, ZNF148 / RFU, TAF9 / Fold change vs veh, TAF9 / RFU, SLC1A5 / Fold change vs veh, SLC1A5 / RFU, SLMO2 / Fold change vs veh, SLMO2 / RFU, ABCC4 / Fold change vs veh, ABCC4 / RFU, LOC101060439 /// RAP1B / Fold change vs veh, LOC101060439 /// RAP1B / RFU, RFX7 / Fold change vs veh, RFX7 / RFU, GTPBP10 / Fold change vs veh, GTPBP10 / RFU, CNEP1R1 / Fold change vs veh, CNEP1R1 / RFU, BIVM-ERCC5 /// ERCC5 / Fold change vs veh, BIVM-ERCC5 /// ERCC5 / RFU, ILF3 / Fold change vs veh, ILF3 / RFU 11762660_at / Fold change /veh 11762660_at / RFU VCAN (11757783_s_at) / Fold change /veh VCAN (11757783_s_at) / RFU DDX43 (11728927_at) / Fold change /veh DDX43 (11728927_at) / RFU KRT8 (11758188_x_at) / Fold change /veh KRT8 (11758188_x_at) / RFU NKD1 (11759106_at) / Fold change /veh NKD1 (11759106_at) / RFU SRD5A1 (11742802_a_at) / Fold change /veh SRD5A1 (11742802_a_at) / RFU TPSAB1 /// TPSB2 (11721975_s_at) / Fold change /veh TPSAB1 /// TPSB2 (11721975_s_at) / RFU GSTM3 (11746129_a_at) / Fold change /veh GSTM3 (11746129_a_at) / RFU IL23R (11737362_x_at) / Fold change /veh IL23R (11737362_x_at) / RFU TMEM51 (11727254_a_at) / Fold change /veh TMEM51 (11727254_a_at) / RFU PIWIL2 (11732686_x_at) / Fold change /veh PIWIL2 (11732686_x_at) / RFU ORM1 (11744905_x_at) / Fold change /veh ORM1 (11744905_x_at) / RFU CCDC152 (11743942_at) / Fold change /veh CCDC152 (11743942_at) / RFU ECM1 (11717891_a_at) / Fold change /veh ECM1 (11717891_a_at) / RFU IL23R (11748794_a_at) / Fold change /veh IL23R (11748794_a_at) / RFU TNFAIP8L3 (11732012_x_at) / Fold change /veh TNFAIP8L3 (11732012_x_at) / RFU MBOAT4 (11741988_at) / Fold change /veh MBOAT4 (11741988_at) / RFU 11764193_at / Fold change /veh 11764193_at / RFU TMEM53 (11763286_at) / Fold change /veh TMEM53 (11763286_at) / RFU MAGEB2 (11727129_at) / Fold change /veh MAGEB2 (11727129_at) / RFU TMEM200A (11744735_a_at) / Fold change /veh TMEM200A (11744735_a_at) / RFU CCDC152 (11751479_a_at) / Fold change /veh CCDC152 (11751479_a_at) / RFU FAM211A (11726209_a_at) / Fold change /veh FAM211A (11726209_a_at) / RFU RGS16 (11746705_a_at) / Fold change /veh RGS16 (11746705_a_at) / RFU VCAN (11755009_s_at) / Fold change /veh VCAN (11755009_s_at) / RFU RHOB (11743442_s_at) / Fold change /veh RHOB (11743442_s_at) / RFU RGS16 (11720943_a_at) / Fold change /veh RGS16 (11720943_a_at) / RFU RGS16 (11720944_at) / Fold change /veh RGS16 (11720944_at) / RFU, VPS4B / Fold change vs veh, VPS4B / RFU, CREB1 / Fold change vs veh, CREB1 / RFU, DNAJC13 / Fold change vs veh, DNAJC13 / RFU, GNAQ / Fold change vs veh, GNAQ / RFU, CDK5R1 / Fold change vs veh, CDK5R1 / RFU, ZRANB3 / Fold change vs veh, ZRANB3 / RFU, CUL4A / Fold change vs veh, CUL4A / RFU, CCNY / Fold change vs veh, CCNY / RFU, UFL1 / Fold change vs veh, UFL1 / RFU, COG3 / Fold change vs veh, COG3 / RFU, DIAPH2 / Fold change vs veh, DIAPH2 / RFU, SKA2 / Fold change vs veh, SKA2 / RFU, AFF3 / Fold change vs veh, AFF3 / RFU, LMF1 / Fold change vs veh, LMF1 / RFU, IPO11 / Fold change vs veh, IPO11 / RFU, DFFB / Fold change vs veh, DFFB / RFU, FOXP1 / Fold change vs veh, FOXP1 / RFU, CARD8 / Fold change vs veh, CARD8 / RFU, STRN3 / Fold change vs veh, STRN3 / RFU, ADK / Fold change vs veh, ADK / RFU, RASSF2 / Fold change vs veh, RASSF2 / RFU, WIPF1 / Fold change vs veh, WIPF1 / RFU, LARP1B / Fold change vs veh, LARP1B / RFU, RASA1 / Fold change vs veh, RASA1 / RFU, RB1 / Fold change vs veh, RB1 / RFU, PPFIA1 / Fold change vs veh, PPFIA1 / RFU, MAT2A / Fold change vs veh, MAT2A / RFU, CCT5 / Fold change vs veh, CCT5 / RFU, WDR92 / Fold change vs veh, WDR92 / RFU, CUX1 / Fold change vs veh, CUX1 / RFU, TTC7A / Fold change vs veh, TTC7A / RFU, TMEM135 / Fold change vs veh, TMEM135 / RFU, DEPTOR / Fold change vs veh, DEPTOR / RFU, CPM / Fold change vs veh, CPM / RFU, DNAJB6 / Fold change vs veh, DNAJB6 / RFU, CACNA2D3 / Fold change vs veh, CACNA2D3 / RFU, DTX4 / Fold change vs veh, DTX4 / RFU, TFCP2 / Fold change vs veh, TFCP2 / RFU, GMCL1 /// GMCL1P1 / Fold change vs veh, GMCL1 /// GMCL1P1 / RFU, AEBP2 / Fold change vs veh, AEBP2 / RFU, SNHG1 /// SNORD22 /// SNORD25 /// SNORD26 /// SNORD27 /// SNORD28 /// SNORD29 /// SNORD31 / Fold change vs veh, SNHG1 /// SNORD22 /// SNORD25 /// SNORD26 /// SNORD27 /// SNORD28 /// SNORD29 /// SNORD31 / Fold change (Aza/veh), C12orf56 (ProbeSet 11735607_a_at) / Fold change (ACY-1035/veh), C12orf56 (ProbeSet 11735607_a_at) / Fold change (Aza/veh), FGFR1OP (ProbeSet 11751329_s_at) / Fold change (ACY-1035/veh), FGFR1OP (ProbeSet 11751329_s_at) / Fold change (Aza/veh), VPS36 (ProbeSet 11739960_a_at) / Fold change (ACY-1035/veh), VPS36 (ProbeSet 11739960_a_at) / RFU SYPL1 (11715823_x_at) / Fold change /veh SYPL1 (11715823_x_at) / RFU IGFBP7 (11715501_s_at) / Fold change /veh IGFBP7 (11715501_s_at) / RFU REEP3 (11722064_at) / Fold change /veh REEP3 (11722064_at) / RFU IGLL1 (11728026_x_at) / Fold change /veh IGLL1 (11728026_x_at): dose or concentration left out as unconfirmed
# Details: ProbeSet 11750457_a_at; LIST B
structure (smiles),measurement,value
Nc1ncn([C@@H]2O[C@H](CO)[C@@H](O)[C@H]2O)c(=O)n1 [azacitidine],"RFU, GTPBP10",30.84 RFU
